Assay results as given in US6855715B1, “Serine protease inhibitors” (Eli Lilly and Company, priority 1999, dated 2005).

Assays:
[1] = tested on: plasma; test: Partial Thromboplastin Time (Prothrombin) Test Protocol; type: biochemical; settings: concentration of the solution added; final concentration in the assay mixture is one third of this value; Example 66 and comparison compounds: average of 3 tests
Experimental: The ability of a test compound to elongate Partial Thromboplastin Time (Prothrombin Time) may be evaluated in the following test protocols.
Partial Thromboplastin Time (Prothrombin) Test Protocol Venous blood was collected into 3.2% (0.109 m) trisodium citrate vacutainer tubes at 1 volume of anticoagulant to nine volumes of blood. The blood cells were separated by centrifugation at 700 g for ten minutes to yield plasma, which was frozen at […] until required.
To perform the test, 100 μl of plasma was pipetted into in a glass test tube, 1 μl of test compound in DMSO was added, and allowed to warm to 37° over two minutes. 100 μl of warm (37°) Manchester (tissue thromboplasin) reagent (Helena Biosciences, UK) was added, allowed to equilibrate for two minutes. 100 μl of warm (37°) 25 mM calcium chloride solution was added to initiate clotting. The test tube was tilted three times through a 90° angle every five seconds to mix the reagents and the time to clot formation recorded. Data from a series of observations and test compound concentrations are analysed by a SAS statistical analysis program and a CT2 (Concentration required to double clotting time) for each compound is generated.

melting point | Molecule | Conc. necessary to double the prothrombin time [1] [µM]
239 to 244 °C | COc1ccc(C(=O)N[C@@H](CNC(=O)c2ccc(C(C)C)cc2)c2ccccc2)cc1 [Example 256, (R)-N-[2-(4-Methoxybenzoylamino)-2-phenylethyl]-4-isopropylbenzamide] | 
 | COc1ccc(C(=O)N[C@@H](C(=O)N2CCN(c3ccc(F)cc3S(C)(=O)=O)CC2)c2ccccc2)cc1N [Example 40, 1-(3-Amino-4-methoxybenzoyl-D-phenylglycinyl)-4-(4-fluoro-2-methylsulphonylphenyl)piperazine] | 12
 | CS(=O)(=O)c1cc(F)ccc1N1CCN(C(=O)[C@H](NC(=O)c2cc(N)ccc2N)c2ccccc2)CC1 [Example 27, 1-(2,5-Diaminobenzoyl-D-phenylglycinyl)-4-(4-fluoro-2-methylsulphonylphenyl)piperazine] | 6.7
 | Cc1ccc(C(=O)N[C@@H](C(=O)N2CCN(c3ccc(F)cc3S(C)(=O)=O)CC2)c2ccccc2)cc1N [Example 38, 1-(3-Amino-4-methylbenzoyl-D-phenylglycinyl)-4-(4-fluoro-2-methylsulphonylphenyl)piperazine] | 9.0
171 to 175 °C | COc1ccc(C(=O)N[C@@H](CNC(=O)c2ccc(C(C)(C)C)cc2)c2ccccc2)cc1 [Example 257, (R)-N-[2-(4-Methoxybenzoylamino)-2-phenylethyl]-4-tert-butylbenzamide] | 
 | CN1CCC(C2CCN(C(=O)[C@H](NC(=O)c3ccc4cc[nH]c4c3)c3ccccc3)CC2)CC1 [Example 66, 1-(Indol-6-carbonyl-D-phenylglycinyl)-1′-methyl-4,4′-bispiperidine] | 2.1
222 to 229 °C | CCc1ccc(C(=O)NC[C@H](NC(=O)c2ccc(OC)cc2)c2ccccc2)cc1 [Example 255, (R)-N-[2-(4-Methoxybenzoylamino)-2-phenylethyl]-4-ethylbenzamide] | 
230 to 238 °C | COc1ccc(C(=O)N[C@@H](CNC(=O)c2ccc(C)cc2)c2ccccc2)cc1 [Example 254, (R)-N-[2-(4-Methoxybenzoylamino)-2-phenylethyl]-4-methylbenzamide] | 
 | CS(=O)(=O)c1cc(F)ccc1N1CCN(C(=O)[C@H](NC(=O)c2ccc3ccnc(N)c3c2)c2ccccc2)CC1.O=C(O)C(F)(F)F.O=C(O)C(F)(F)F [1-aminoisoquinolin-7-oyl-D-phenylglycine-4-(4-fluoro-2-methanesulfonylphenyl)-piperazinamide ditrifluoroactetate salt, reference compound] | 45
 | COc1ccc(C(=O)N[C@@H](C(=O)N2CCN(c3ccc(F)cc3S(C)(=O)=O)CC2)c2ccccc2)cc1 [Example 39, 1-(4-Methoxybenzoyl-D-phenylglycinyl)-4-(4-fluoro-2-methylsulphonylphenyl)piperazine] | 12
245 to 251 °C | CCN1CCC(C(=O)NC[C@H](NC(=O)c2ccc(OC)cc2)c2ccccc2)CC1 [Example 261, (R)-N-[2-(4-Methoxybenzoylamino)-2-phenylethyl]-1-ethylpiperidine-4-carboxamide] | 
 | Cc1ccc(C(=O)N[C@@H](C(=O)N2CCC(C3CCN(C)CC3)CC2)c2ccccc2)cc1N [Example 64, 1-(3-Amino-4-methylbenzoyl-D-phenylglycinyl)-1′-methyl-4,4′-bispiperidine] | 4.4
 | CN1CCC(C2CCN(C(=O)[C@H](NC(=O)c3cccc(N)c3)c3ccccc3)CC2)CC1 [Example 62, 1-(3-Aminobenzoyl-D-phonylglycinyl)-1′-methyl-4,4′-bispiperidine] | 8.6
190 to 192 °C | COc1ccc(C(=O)N[C@@H](C(=O)N2CCN(CCC3CCCC3)CC2)c2ccccc2)cc1.Cl.O (hydrate or solvate) | 
 | 1-(3,4 Diaminobenzoyl-D-phenylglycinyl)-4-(4-fluoro-2-methylsulphonylphenyl)piperazine [Example 32] | 11
 | COc1ccc(C(=O)N[C@@H](C(=O)N2CCC(C3CCN(C)CC3)CC2)c2ccccc2)cc1N [Example 69, 1-(3-Amino-4-methoxybenzoyl-D-phenylglycinyl)-1′-methyl-4,4′-bispiperidine] | 5.8
253 to 257 °C | COc1ccc(C(=O)N[C@@H](CNC(=O)C2CCN(C3CCCC3)CC2)c2ccccc2)cc1 [Example 259, (R)-N-[2-(4-Methoxybenzoylamino)-2-phenylethyl]-1-cyclopentylpiperidine-4-carboxamide] | 
 | CS(=O)(=O)c1cc(F)ccc1N1CCN(C(=O)[C@H](NC(=O)c2cccc(N)c2)c2ccccc2)CC1 [Example 30, 1-(3-Aminobenzoyl-D-phenylglycinyl)-4-(4-fluoro-2-methylsulphonylphenyl)piperazine] | 7.8
 | CNc1ccc(C(=O)N[C@@H](C(=O)N2CCC(C3CCN(C)CC3)CC2)c2ccccc2)cc1 [Example 70, 1-(4-(Methylamino)benzoyl-D-phenylglycinyl)-1′-methyl-4,4′-bispiperidine] | 4.0
239 to 243 °C | COc1ccc(C(=O)N[C@@H](CNC(=O)C2CCN(C3CCCCC3)CC2)c2ccccc2)cc1 [Example 260, (R)-N-[2-(4-Methoxybenzoylamino)-2-phenylethyl]-1-cyclohexylpiperidine-4-carboxamide] | 
172 to 180 °C (dec.) | COc1ccc(C(=O)N[C@@H](C(=O)N2CCN(CC3CCN(C(C)C)CC3)CC2)c2ccccc2)cc1.Cl | 
252 to 259 °C | COc1ccc(C(=O)N[C@@H](CNC(=O)C2CCN(C3CCN(C)CC3)CC2)c2ccccc2)cc1 [Example 262, (R)-N-[2-(4-Methoxybenzoylamino)-2-phenylethyl]-1-(1-methylpiperidin-4-yl)piperidine-4-carboxamide] | 
 | CN1CCC(C2CCN(C(=O)[C@H](NC(=O)c3ccc(Br)c(N)c3)c3ccccc3)CC2)CC1 [Example 68, 1-(3-Amino-4-bromobenzoyl-D-phenylglycinyl)-1′-methyl-4,4′-bispiperidine] | 3.6
 | CN1CCC(C2CCN(C(=O)[C@H](NC(=O)c3cc4ccccc4cc3N)c3ccccc3)CC2)CC1 [Example 65, 1-(3-Aminonaphth-2-oyl-D-phenylglycinyl)-1′-methyl-4,4′-bispiperidine] | 6.1
 | Nc1cc2ccccc2cc1C(=O)N[C@@H](C(=O)N1CCC(C2CCNCC2)CC1)c1ccccc1 [Example 8, 1-(3-Amino-2-naphthoyl-D-phenylglycinyl)-4,4′-bispiperidine] | 26
 | CN1CCC(C2CCN(C(=O)[C@H](NC(=O)c3ccc(Cl)c(N)c3)c3ccccc3)CC2)CC1 [Example 63, 1-(3-Amino-4-chlorobenzoyl-D-phenylglycinyl)-1′-methyl-4,4′-bispiperidine] | 2.1
